# Target: human NAMPT enzyme (His-hNAMPT) (Homo sapiens (Human), UniProt P43490)
# Experiment: NAMPT enzymatic inhibition assay (fluorescence, NADH product)
# Assay type: biochemical
# Conditions: [BPS]; read-out: NAMPT IC50 (μM) [BPS]
# human NAMPT enzyme (His-hNAMPT), sequence (P43490 whole entry): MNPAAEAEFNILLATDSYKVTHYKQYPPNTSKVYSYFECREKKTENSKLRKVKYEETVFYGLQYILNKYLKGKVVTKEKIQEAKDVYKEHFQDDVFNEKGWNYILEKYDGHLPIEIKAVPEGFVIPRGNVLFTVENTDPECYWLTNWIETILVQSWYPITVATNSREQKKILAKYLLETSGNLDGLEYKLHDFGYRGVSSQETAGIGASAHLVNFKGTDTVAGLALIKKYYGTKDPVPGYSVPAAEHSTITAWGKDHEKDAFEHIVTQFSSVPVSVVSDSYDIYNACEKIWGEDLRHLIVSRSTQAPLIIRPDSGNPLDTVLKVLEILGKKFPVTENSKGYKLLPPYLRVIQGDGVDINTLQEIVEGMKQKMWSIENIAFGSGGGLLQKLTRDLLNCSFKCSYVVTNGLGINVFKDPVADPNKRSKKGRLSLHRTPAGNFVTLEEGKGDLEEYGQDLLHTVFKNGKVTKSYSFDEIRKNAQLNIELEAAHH
row,IC50,Compound
1,0.01 to 0.49 µM,"O=C(NCC[C@@H]1[C@H]2CN(c3ncc4ccccc4n3)C[C@@H]12)c1cc2ccncc2o1 [Example 122, N-(2-((1R,5S,6s)-3-(quinazolin-2-yl)-3-azabicyclo[3.1.0]hexan-6-yl)ethyl)furo[2,3-c]pyridine-2-carboxamide]"
2,0.01 to 0.49 µM,"O=C(/C=C/c1cccnc1)NCC[C@@H]1[C@H]2CN(c3ncccn3)C[C@@H]12 [Example 123, (E)-3-(pyridin-3-yl)-N-(2-((1R,5S,6s)-3-(pyrimidin-2-yl)-3-azabicyclo[3.1.0]hexan-6-yl)ethyl)acrylamide]"
3,0.01 to 0.49 µM,"O=C(/C=C/c1cccnc1)NCC[C@@H]1[C@H]2CN(c3nc4ccccc4s3)C[C@@H]12 [Example 124, (E)-N-(2-((1R,5S,6s)-3-(benzo[d]thiazol-2-yl)-3-azabicyclo[3.1.0]hexan-6-yl)ethyl)-3-(pyridin-3-yl)acrylamide]"
4,0.01 to 0.49 µM,"O=C(/C=C/c1cccnc1)NCC[C@@H]1[C@H]2CN(c3ncc4ccccc4n3)C[C@@H]12 [Example 125, (E)-3-(pyridin-3-yl)-N-(2-((1R,5S,6s)-3-(quinazolin-2-yl)-3-azabicyclo[3.1.0]hexan-6-yl)ethyl)acrylamide]"
5,0.01 to 0.49 µM,"O=C(/C=C/c1cccnc1)NCC[C@@H]1[C@H]2CN(c3cccc4ccccc34)C[C@@H]12 [Example 126, (E)-N-(2-((1R,5S,6s)-3-(naphthalen-1-yl)-3-azabicyclo[3.1.0]hexan-6-yl)ethyl)-3-(pyridin-3-yl)acrylamide]"
6,0.01 to 0.49 µM,"O=C(/C=C/c1cccnc1)NCC[C@@H]1[C@H]2CN(c3ccc4ccccc4c3)C[C@@H]12 [Example 127, (E)-N-(2-((1R,5S,6s)-3-(naphthalen-2-yl)-3-azabicyclo[3.1.0]hexan-6-yl)ethyl)-3-(pyridin-3-yl)acrylamide]"
7,0.01 to 0.49 µM,"O=C(/C=C/c1cccnc1)NCC[C@@H]1[C@H]2CN(c3cccc(F)c3)C[C@@H]12 [Example 128, (E)-N-(2-((1R,5S,6s)-3-(3-fluorophenyl)-3-azabicyclo[3.1.0]hexan-6-yl)ethyl)-3-(pyridin-3-yl)acrylamide]"
8,0.01 to 0.49 µM,"COc1cccc(N2C[C@@H]3[C@@H](CCNC(=O)/C=C/c4cccnc4)[C@@H]3C2)c1 [Example 129, (E)-N-(2-((1R,5S,6s)-3-(3-methoxyphenyl)-3-azabicyclo[3.1.0]hexan-6-yl)ethyl)-3-(pyridin-3-yl)acrylamide]"
9,0.01 to 0.49 µM,"COc1cccc(N2C[C@@H]3[C@@H](CCNC(=O)c4cc5ccncc5o4)[C@@H]3C2)c1 [Example 130, N-(2-((1R,5S,6s)-3-(3-methoxyphenyl)-3-azabicyclo[3.1.0]hexan-6-yl)ethyl)furo[2,3-c]pyridine-2-carboxamide]"
10,0.01 to 0.49 µM,"O=C(NCC[C@@H]1[C@H]2CN(c3ncccn3)C[C@@H]12)c1cc(-c2cccnc2)on1 [Example 131, 5-(pyridin-3-yl)-N-(2-((1R,5S,6s)-3-(pyrimidin-2-yl)-3-azabicyclo[3.1.0]hexan-6-yl)ethyl)isoxazole-3-carboxamide]"
11,0.01 to 0.49 µM,"Cc1ccccc1N1C[C@@H]2[C@@H](CCNC(=O)/C=C/c3cccnc3)[C@@H]2C1 [Example 132, (E)-3-(pyridin-3-yl)-N-(2-((1R,5S,6s)-3-(o-tolyl)-3-azabicyclo[3.1.0]hexan-6-yl)ethyl)acrylamide]"
12,0.01 to 0.49 µM,"Cc1cccc(C)c1N1C[C@@H]2[C@@H](CCNC(=O)/C=C/c3cccnc3)[C@@H]2C1 [Example 133, (E)-N-(2-((1R,5S,6s)-3-(2,6-dimethylphenyl)-3-azabicyclo[3.1.0]hexan-6-yl)ethyl)-3-(pyridin-3-yl)acrylamide]"

# Same assay, conditions: [HDB]; read-out: NAMPT IC50 (μM) [HDB]
row,IC50,Compound
1,< 0.01 µM,"O=C(NCC[C@@H]1[C@H]2CN(c3ccccc3)C[C@@H]12)c1cc(-c2cccnc2)on1 [Example 134, N-(2-((1R,5S,6s)-3-phenyl-3-azabicyclo[3.1.0]hexan-6-yl)ethyl)-5-(pyridin-3-yl)isoxazole-3-carboxamide]"
2,0.01 to 0.49 µM,"N#Cc1ccccc1N1C[C@@H]2[C@@H](CCNC(=O)/C=C/c3cccnc3)[C@@H]2C1 [Example 135, (E)-N-(2-((1R,5S,6s)-3-(2-cyanophenyl)-3-azabicyclo[3.1.0]hexan-6-yl)ethyl)-3-(pyridin-3-yl)acrylamide]"
3,< 0.01 µM,"N#Cc1cccc(N2C[C@@H]3[C@@H](CCNC(=O)/C=C/c4cccnc4)[C@@H]3C2)c1 [Example 136, (E)-N-(2-((1R,5S,6s)-3-(3-cyanophenyl)-3-azabicyclo[3.1.0]hexan-6-yl)ethyl)-3-(pyridin-3-yl)acrylamide]"
4,0.01 to 0.49 µM,"N#Cc1ccc(N2C[C@@H]3[C@@H](CCNC(=O)/C=C/c4cccnc4)[C@@H]3C2)cc1 [Example 137, (E)-N-(2-((1R,5S,6s)-3-(4-cyanophenyl)-3-azabicyclo[3.1.0]hexan-6-yl)ethyl)-3-(pyridin-3-yl)acrylamide]"
5,0.01 to 0.49 µM,"O=C(/C=C/c1cccnc1)NCC[C@@H]1[C@H]2CN(c3cccc(C(F)(F)F)c3)C[C@@H]12 [Example 138, (E)-3-(pyridin-3-yl)-N-(2-((1R,5S,6s)-3-(3-(trifluoromethyl)phenyl)-3-azabicyclo[3.1.0]hexan-6-yl)ethyl)acrylamide]"
6,0.01 to 0.49 µM,"O=C(/C=C/c1cccnc1)NCC[C@@H]1[C@H]2CN(c3ccc(C(F)(F)F)cc3)C[C@@H]12 [Example 139, (E)-3-(pyridin-3-yl)-N-(2-((1R,5S,6s)-3-(4-(trifluoromethyl)phenyl)-3-azabicyclo[3.1.0]hexan-6-yl)ethyl)acrylamide]"
7,0.01 to 0.49 µM,"O=C(/C=C/c1cccnc1)NCC[C@@H]1[C@H]2CN(c3ccccc3C(F)(F)F)C[C@@H]12 [Example 140, (E)-3-(pyridin-3-yl)-N-(2-((1R,5S,6S)-3-(2-(trifluoromethyl)phenyl)-3-azabicyclo[3.1.0]hexan-6-yl)ethyl)acrylamide]"
8,< 0.01 µM,"O=C(/C=C/c1cccnc1)NCC[C@@H]1[C@H]2CN(c3ccc4ccncc4c3)C[C@@H]12 [Example 141, (E)-N-(2-((1R,5S,6s)-3-(isoquinolin-7-yl)-3-azabicyclo[3.1.0]hexan-6-yl)ethyl)-3-(pyridin-3-yl)acrylamide]"
9,< 0.01 µM,"O=C(/C=C/c1cccnc1)NCC[C@@H]1[C@H]2CN(c3ccc4cnccc4c3)C[C@@H]12 [Example 142, (E)-N-(2-((1R,5S,6s)-3-(isoquinolin-6-yl)-3-azabicyclo[3.1.0]hexan-6-yl)ethyl)-3-(pyridin-3-yl)acrylamide]"
10,0.01 to 0.49 µM,"O=C(/C=C/c1cccnc1)NCC[C@@H]1[C@H]2CN(c3ccnc4ccccc34)C[C@@H]12 [Example 143, (E)-3-(pyridin-3-yl)-N-(2-((1R,5S,6s)-3-(quinolin-4-yl)-3-azabicyclo[3.1.0]hexan-6-yl)ethyl)acrylamide]"
11,0.01 to 0.49 µM,"O=C(/C=C/c1cccnc1)NCC[C@@H]1[C@H]2CN(c3ccccc3Cl)C[C@@H]12 [Example 144, (E)-N-(2-((1R,5S,6s)-3-(2-chlorphenyl)-3-azabicyclo[3.1.0]hexan-6-yl)ethyl)-3-(pyridin-3-yl)acrylamide]"
12,0.01 to 0.49 µM,"O=C(/C=C/c1cccnc1)NCC[C@@H]1[C@H]2CN(c3cccc(Cl)c3)C[C@@H]12 [Example 145, (E)-N-(2-((1R,5S,6s)-3-(3-chlorophenyl)-3-azabicyclo[3.1.0]hexan-6-yl)ethyl)-3-(pyridin-3-yl)acrylamide]"
13,0.01 to 0.49 µM,"O=C(/C=C/c1cccnc1)NCC[C@@H]1[C@H]2CN(c3ccc(Cl)cc3)C[C@@H]12 [Example 146, (E)-N-(2-((1R,5S,6s)-3-(4-chlorophenyl)-3-azabicyclo[3.1.0]hexan-6-yl)ethyl)-3-(pyridin-3-yl)acrylamide]"
14,< 0.01 µM,"O=C(/C=C/c1cccnc1)NCC[C@@H]1[C@H]2CN(c3ccc(Cl)c(Cl)c3)C[C@@H]12 [Example 147, (E)-N-(2-((1R,5S,6s)-3-(3,4-dichlorophenyl)-3-azabicyclo[3.1.0]hexan-6-yl)ethyl)-3-(pyridin-3-yl)acrylamide]"
15,< 0.01 µM,"O=C(/C=C/c1cccnc1)NCC[C@@H]1[C@H]2CN(c3cc(Cl)cc(Cl)c3)C[C@@H]12 [Example 148, (E)-N-(2-((1R,5S,6s)-3-(3,5-dichlorophenyl)-3-azabicyclo[3.1.0]hexan-6-yl)ethyl)-3-(pyridin-3-yl)acrylamide]"
16,0.01 to 0.49 µM,"O=C(/C=C/c1cccnc1)NCC[C@@H]1[C@H]2CN(c3cccnc3)C[C@@H]12 [Example 149, (E)-3-(pyridin-3-yl)-N-(2-((1R,5S,6s)-3-(pyridin-3-yl)-3-azabicyclo[3.1.0]hexan-6-yl)ethyl)acrylamide]"
17,0.01 to 0.49 µM,"O=C(/C=C/c1cccnc1)NCC[C@@H]1[C@H]2CN(c3cc(Cl)ccc3F)C[C@@H]12 [Example 150, (E)-N-(2-((1R,5S,6s)-3-(5-chloro-2-flurophenyl)-3-azabicyclo[3.1.0]hexan-6-yl)ethyl)-3-(pyridin-3-yl)acrylamide]"
18,< 0.01 µM,"CSc1cccc(N2C[C@@H]3[C@@H](CCNC(=O)/C=C/c4cccnc4)[C@@H]3C2)c1 [Example 151, (E)-N-(2-((1R,5S,6s)-3-(3-(methylthio)phenyl)-3-azabicyclo[3.1.0]hexan-6-yl)ethyl)-3-(pyridin-3-yl)acrylamide]"
19,0.01 to 0.49 µM,"CS(=O)(=O)c1cccc(N2C[C@@H]3[C@@H](CCNC(=O)/C=C/c4cccnc4)[C@@H]3C2)c1 [Example 152, (E)-N-(2-((1R,5S,6s)-3-(3-(methylsulfonyl)phenyl)-3-azabicyclo[3.1.0]hexan-6-yl)ethyl)-3-(pyridin-3-yl)acrylamide]"
20,0.01 to 0.49 µM,"O=C(/C=C/c1cccnc1)NCC[C@@H]1[C@H]2CN(c3ccc(F)c(Cl)c3)C[C@@H]12 [Example 153, (E)-N-(2-((1R,5S,6s)-3-(3-chloro-4-fluorophenyl)-3-azabicyclo[3.1.0]hexan-6-yl)ethyl)-3-(pyridin-3-yl)acrylamide]"
21,0.01 to 0.49 µM,"O=C(/C=C/c1cccnc1)NCC[C@@H]1[C@H]2CN(c3ccncc3)C[C@@H]12 [Example 154, (E)-3-(pyridin-3-yl)-N-(2-((1R,5S,6s)-3-(pyridin-4-yl)-3-azabicyclo[3.1.0]hexan-6-yl)ethyl)acrylamide]"
22,0.01 to 0.49 µM,"CC(C)(C)c1cccc(N2C[C@@H]3[C@@H](CCNC(=O)/C=C/c4cccnc4)[C@@H]3C2)c1 [Example 155, (E)-N-(2-((1R,5S,6s)-3-(3-(tert-butyl)phenyl)-3-azabicyclo[3.1.0]hexan-6-yl)ethyl)-3-(pyridin-3-yl)acrylamide]"

# From US12421210B2, “Fused bicyclic heterocycles as therapeutic agents” (NEW YORK UNIVERSITY, priority 2018, dated 2025)
